Test results: publication PMC4199632, “Exploring the Anti-Cancer Activity of Novel Thiosemicarbazones Generated through the Combination of Retro-Fragments: Dissection of Critical Structure-Activity Relationships” (PLoS ONE, 2014)

Experiments:
[1] = tested on: HCT116 p53+/+ colon cancer cells; assay: Proliferation assay (MTS, 96 h); type: cell-based, human; conditions: Homo sapiens, HCT-116; 96 h incubation, MTS; mean ±SD (3 experiments)
Description: (§1) The human cancer cell types (neuroepithelioma (SK-N-MC), colon cancer (HCT116 with wild-type p53 (p53^+/+)), Burkitt's lymphoma (Raji) and cervical carcinoma (HeLa)) cells and normal human dermal fibroblasts (NHDF) were obtained from the American Type Culture Collection (ATCC, Manassas, VA, USA). HCT116 null p53 (p53^−/−) cells were obtained from the Maria Sklodowska-Curie Memorial Cancer Center and Institute of Oncology, Poland.
(§2) The SK-N-MC cells were cultured in minimum essential medium (MEM; Life Technologies, Grand Island, New York, USA) containing 10% (v/v) fetal bovine serum (FBS; Life Technologies), 1 mM sodium pyruvate (Life Technologies), 1% (v/v) non-essential amino acids (Life Technologies), 2 mM L-glutamine (Life Technologies), 100 U/mL penicillin (Life Technologies), 100 µg/mL streptomycin (Life Technologies) and 0.28 µg/mL fungizone (Bristol Myers Squibb Pharmaceuticals, Montreal, Canada). The HCT116 and NHDF cells were grown in Dulbecco's modified Eagle's medium (DMEM; Sigma-Aldrich) supplemented with 12% (v/v) heat-inactivated FBS (HCT116; Life Technologies) or 15% (v/v) FBS (NHDF; Life Technologies), 100 µg/mL of gentamicin (Polfa Warszawa S.A., Warsaw, Poland), 100 µg/mL of streptomycin (Polfa) and 100 U/mL of penicillin (Polfa). The Raji and HeLa cells were cultured in Roswell Park Memorial Institute medium (RPMI-1640; Sigma-Aldrich) with the addition of 10% (v/v) heat-inactivated FBS (Life Technologies) and the supplements described for SK-N-MC cells above. All cell lines were cultured under standard conditions at 37°C in a humidified atmosphere at 5% CO2 and were subcultured every 3–4 days as required.
(§3) The cells were seeded in 96-well plates (SK-N-MC: 1.5×10^4 cells/well; HeLa: 5.0×10^3 cells/well; Raji: 3.0×10^3 cells/well; HCT116: 3.5×10^3 cells/well; NHDF: 3.0×10^3 cells/well) 24 h prior to the addition of the novel compounds. The assays were performed using a 72 h (SK-N-MC, Raji, HeLa) or 96 h (HCT 116, NHDF) incubation period with the agents at 37°C. […] Additionally, DFO and Dp44mT were included as positive controls in all experiments as their activity is well characterized, [42], [50].
(§4) Chelator stock solutions were prepared in DMSO and diluted in media so that the final [DMSO] <0.05%. The results were expressed as a percentage of the control and the resulting IC50 values were calculated using GraphPad Prism 5 (GraphPad Software, Inc., La Jolla, CA, USA). The IC50 was defined as the concentration necessary to reduce the absorbance to 50% of the untreated control. Each individual compound was tested in triplicate in a single experiment, with each experiment being repeated three times. After incubation of HCT 116 and NHDF cells with the tested compounds, 20 µL of the CellTiter 96 Aqueous One Solution - MTS (Promega, Madison, WI, USA) solution was added to each well (with 100 µL of DMEM without phenol red) and incubated for 1 h/37°C. The optical density of the samples was analyzed at 490 nm.

[2] = tested on: HCT116 p53−/− colon cancer cells; assay: Proliferation assay (MTS, 96 h); type: cell-based, human; conditions: Homo sapiens, HCT-116, 96 h, 96 h incubation, MTS; mean ±SD (3 experiments)
Description: as §1, §2, §3, §4

[3] = tested on: Raji Burkitt's lymphoma cells; assay: Proliferation assay (MTT, 72 h); type: cell-based; conditions: Homo sapiens, 72 h incubation, mean ±SD (3 experiments)
Description: as §1, §2, §3, §4
(§5) MTT (3-[4,5-dimethylthiazol-2-yl]-2,5-diphenyltetrazolium bromide) was used to evaluate the anti-proliferative effects of the chelators in SK-N-MC and Raji cells. Following incubation with the investigated compounds, 10 µL of MTT (5 mg/mL in PBS; Sigma-Aldrich) was added to each well. After a 2 h (SK-N-MC) or 4 h (Raji) incubation, the plates were centrifuged, and the cells were lysed with 100 µL of 10% SDS-50% isobutanol in 0.01 M HCl (SK-N-MC) or DMSO (Raji). The absorbance was measured at 570 nm. The anti-proliferative effects of these novel agents on HeLa cells were estimated using crystal violet staining (0.5% crystal violet solution for 10 min). Finally, the wells were rinsed with water and the cells were lysed with 2% SDS. The optical density of the samples was analyzed at 595 nm.

[4] = tested on: SK-N-MC neuroepithelioma cells; assay: Proliferation assay (MTT, 72 h); type: cell-based; conditions: Homo sapiens, 72 h incubation, mean ±SD (3 experiments)
Description: as §1, §2, §3, §4, §5

[5] = tested on: HeLa cervical carcinoma cells; assay: Proliferation assay (crystal violet, 72 h); type: cell-based; conditions: Homo sapiens, 72 h incubation, mean ±SD (3 experiments)
Description: as §1, §2, §3, §4, §5

[6] = tested on: normal human dermal fibroblast (NHDF) cells; assay: Proliferation assay (MTS, 96 h), normal mortal cells; type: cell-based; conditions: Homo sapiens, NHDF, 96 h, 96 h incubation, mean ±SD (3 experiments)
Description: as §1, §2, §3, §4

SK-N-MC cells [7] = assay: Mobilization of cellular 59Fe (59Fe efflux); type: cell-based, human; conditions: chelator 25 µM; for 59Fe mobilization (% of cellular 59Fe released): 3 h/37°C, prelabeled SK-N-MC cells, control medium 4±1%
Description: (§6) The iron transport protein, Tf (Sigma-Aldrich), was labeled with ^59Fe (PerkinElmer Life and Analytical Sciences, Boston, MA) to form ^59Fe2-Tf using standard methods, [7]. Unbound ^59Fe was removed by passage through a Sephadex G25 column and was followed by exhaustive dialysis, [7].
To examine the ability of the novel chelators to mobilize ^59Fe from SK-N-MC cells, ^59Fe efflux experiments were performed using established techniques, [51]. The monolayer of SK-N-MC cells was prelabeled for 3 h at 37°C in MEM containing ^59Fe2-Tf (0.75 µM). Cells were then washed four times with ice-cold PBS and incubated for a further 3 h at 37°C with medium alone (the control) or medium containing the chelator (25 µM). After this incubation, the overlying medium that contained the released ^59Fe was separated from the cells using a Pasteur pipette. Radioactivity was measured in both the cells and supernatant using a γ-scintillation counter (Wallac Wizard 3, Turku, Finland). In these studies, the novel ligands were compared to the previously characterized chelators, DFO and Dp44mT, as their ability to mobilize cellular ^59Fe has been extensively examined in these cells, [12], [17], [18], [50].
Figure 6 Effect of (A) series 1, (B) series 2, (C) series 3, (D) series 4, (E) series 5 and (F) series 6 chelators, relative to the controls DFO and Dp44mT, on ^59Fe mobilization from prelabeled SK-N-MC cells. Cells were incubated for 3 h/37°C with ^59Fe-transferrin (0.75 µM), washed 4 times with ice-cold PBS and then reincubated for 3 h/37°C in the presence or absence of the chelators (25 µM). Release of ^59Fe was then assessed using a γ-scintillation counter. Results are mean ±SD (3 experiments).

SK-N-MC cells [8] = assay: Inhibition of cellular 59Fe uptake from 59Fe2-Tf; type: cell-based, human; conditions: chelator 25 µM
Description: as §6
The ability of the chelators to prevent the cellular uptake of ^59Fe from ^59Fe2-Tf was examined using standard methods, [14], [17], [18], [50]. A monolayer of SK-N-MC cells was incubated with medium containing ^59Fe2-Tf (0.75 µM) and the chelator (25 µM) for 3 h at 37°C. The medium was then removed and the cells were washed four times with ice-cold PBS. The cells were then incubated for 30 min at 4°C with the general protease, Pronase (1 mg/mL; Sigma-Aldrich), to remove membrane-bound ^59Fe. The cells were removed using a plastic spatula and centrifuged at 14,000 rpm/1 min to separate internalized from membrane-bound ^59Fe. The cell pellet was resuspended in 1 mL of PBS and the internalized ^59Fe was measured on a γ-scintillation counter. Internalized ^59Fe uptake was calculated as a percentage of the control (medium alone). Again, the novel ligands were compared to DFO and Dp44mT as their ability to inhibit cellular ^59Fe uptake has been extensively characterized using SK-N-MC cells, [14], [17], [18], [50].
Figure 8 Effect of (A) series 1, (B) series 2, (C) series 3, (D) series 4, (E) series 5 and (F) series 6 chelators, relative to the controls DFO and Dp44mT, on ^59Fe uptake from ^59Fe-transferrin by SK-N-MC cells. Cells were incubated for 3 h/37°C with ^59Fe-transferrin (0.75 µM) in the presence or absence of the chelators (25 µM). At the end of this incubation, cells were washed 4 times with ice-cold PBS. Internalization of ^59Fe was assessed by incubation for 30 min/4°C with the protease, Pronase (1 mg/mL). Cellular ^59Fe was then assessed using a γ-scintillation counter. Results are mean ±SD (3 experiments).

[9] = design: method as in PMID 17851637, PMID 18217206, PMID 15148626; conditions: clinical trials; cited from earlier work

Row | Structure (SMILES) | IC50 [1] [µM] | IC50 [2] [µM] | IC50 [3] [µM] | IC50 [4] [µM] | IC50 [5] [µM] | melting point [°C] | IC50 [6] [µM] | 59Fe mobilization (% of cellular 59Fe released) (SK-N-MC cells [7]) | Internalized 59Fe uptake from 59Fe2-Tf (% of the control) (SK-N-MC cells [8]; 59Fe2-Tf 0.75 µM, 3 h/37°C) | 59Fe mobilization efficacy compared with controls (SK-N-MC cells [7]; SK-N-MC cells) | Inhibition of 59Fe uptake compared with controls (SK-N-MC cells [8]) | Side effects upon administration [9]
1 | CCN1CCN(C(=S)N/N=C/c2c(O)ccc3cccnc23)CC1 [4a] | 20.2 ± 0.3 | 20.3 ± 0.9 | 3.35 ± 1.11 | 5.09 ± 0.47 | 11.3 ± 1.6 | – | 12.1 ± 4.2 | 31–39% | – | – | – | –
2 | Oc1ccccc1/C=N/NC(=S)N1CCN(c2ccccc2)CC1 [6b] | 6.9 ± 2.3 | 8.86 ± 1.46 | 1.96 ± 0.85 | 5.13 ± 0.51 | 5.8 ± 0.48 | 206 to 207 | 13.5 ± 4.8 | – | – | – | – | –
3 | NC(=S)NN=Cc1ncccc1N [Triapine, 3-aminopyridine-2-carboxaldehyde thiosemicarbazone] | – | – | – | – | – | – | – | – | – | – | – | methemoglobin formation and hypoxia

More lines, main results first:

Row | IC50 [1] [µM] | IC50 [2] [µM] | IC50 [3] [µM] | IC50 [4] [µM] | IC50 [5] [µM] | melting point [°C] | Structure (SMILES) | IC50 [6] [µM] | 59Fe mobilization (% of cellular 59Fe released) (SK-N-MC cells [7]) | Internalized 59Fe uptake from 59Fe2-Tf (% of the control) (SK-N-MC cells [8]; 59Fe2-Tf 0.75 µM, 3 h/37°C) | 59Fe mobilization efficacy compared with controls (SK-N-MC cells [7]; SK-N-MC cells) | Inhibition of 59Fe uptake compared with controls (SK-N-MC cells [8]) | Side effects upon administration [9]
4 | 0.014 ± 0.005 | 0.014 ± 0.006 | 0.003 ± 0.004 | 1.21 ± 0.35 | 2.21 ± 0.47 | – | S=C(NN=C(c1ccccn1)c1ccccn1)N1CCOCC1 [1c] | 0.016 ± 0.006 | 31–39% | 3.6–11.5% | – | – | –
5 | 0.39 ± 0.15 | 0.27 ± 0.16 | 0.05 ± 0.02 | 0.52 ± 0.16 | 5.14 ± 2.87 | – | S=C(N/N=C/c1ccc2ccccc2n1)N1CCN(c2ccccn2)CC1 [2d] | 0.032 ± 0.008 | – | – | comparable release of ^59Fe relative to DFO | comparable inhibition of ^59Fe uptake to that of DFO | –
6 | 20.1 ± 0.3 | 19.8 ± 4.9 | 3.53 ± 1.87 | 4.97 ± 0.95 | 10.2 ± 1.2 | – | Oc1ccc2cccnc2c1/C=N/NC(=S)N1CCOCC1 [4c] | > 25 | 31–39% | – | – | – | –
